The text below walks through data of patent publication US20220087987A1, “A METHOD FOR TREATING SWI/SNF COMPLEX-DEFICIENT CANCERS COMPRISING GLUTATHIONE (GSH) METABOLIC PATHWAY INHIBITOR” (National Cancer Center, priority 2018, published 2022).

Read-outs that look alike come from different tables or passages of the source. Square brackets hold non-standard residues; d marks the D form. Peptide text beside a SMILES is read from it. * marks the point of attachment. Sta = CC(C)C[C@H](N)[C@@H](O)CC(=O)O; Isovaleryl = CC(C)CC(=O)*

For one series, the system named is ARID1A-WT HCT116 cells. In words: Drug library screen, cell viability (CellTiter-Glo). It is filed as cell-based, human. The arrangement: key to Cell viability, WT: % viability relative to DMSO solvent-treated cells. How it is done:
(§1) ARID1A-WT and ARID1A-KO HCT116 cancer cells were used for screening assays. […] Cell viability was assessed after 5 days using the CellTiter-Glo Luminescent Cell Viability Assay (Promega). Luminescence was measured using an Envision Multi-label plate reader (PerkinElmer). The luminescence reading was used to determine the cell viability relative to that of cells treated with solvent (DMSO). Candidate compounds were considered if viability of ARID1A-KO cells was less than […] was more than 80%.
(Cellular ATP, detected with luciferase, serves as a proxy for viable cell number.)

For a further series, the system named is ARID1A-KO HCT116 cells. Described as above. It is filed as cell-based, human. The arrangement: key to Cell viability, KO: % viability relative to DMSO solvent-treated cells. How it is done:
as §1

The mark [1] stands for this setting: HCT116 ARID1A-WT, 10 μM for 5 days, relative to cells treated with solvent (DMSO).
[2] abbreviates: HCT116 ARID1A-KO, 10 μM for 5 days, relative to cells treated with solvent (DMSO).

For the compound `CC(C)(C)n1nc(-c2cccc3ccccc23)c2c(N)ncnc21` [PP1 analog], the “Cell viability, WT” value with ARID1A-WT HCT116 cells (setting [1]) is reported as 76.55. Also, the “Cell viability, KO” value with ARID1A-KO HCT116 cells (setting [2]) is reported as 69.2339.

Turning to `CC(C)(C)n1nc(-c2ccc(Cl)cc2)c2c(N)ncnc21` [PP2], the “Cell viability, WT” value in the series with ARID1A-WT HCT116 cells (setting [1]) was 121.2434. Besides, in the series with ARID1A-KO HCT116 cells (setting [2]), the “Cell viability, KO” value worked out at 149.4142.

`CC(C)CC(=O)N[C@H](C(=O)N[C@H](C(=O)N[C@@H](CC(C)C)[C@@H](O)CC(=O)N[C@@H](C)C(=O)N[C@@H](CC(C)C)[C@@H](O)CC(=O)O)C(C)C)C(C)C` [Pepstatin A] (Isovaleryl-VV[Sta]A[Sta]-OH): the “Cell viability, WT” value with ARID1A-WT HCT116 cells (setting [1]) was 115.9467. Also, the “Cell viability, KO” value in the series on ARID1A-KO HCT116 cells (setting [2]) turned out to be 126.4531.

Regarding `Cc1ccc(-c2cn3c4c(sc3n2)CCCC4)cc1` [Pifithrin-a (cyclic)], the “Cell viability, WT” value in the series with ARID1A-WT HCT116 cells (setting [1]) is given as 91.15. Further, the “Cell viability, KO” value in the series on ARID1A-KO HCT116 cells (setting [2]) stood at 99.94.

Consider `CC(C)[C@H](CO)Nc1nc(Nc2cccc(Cl)c2)c2ncn(C(C)C)c2n1` [Purvalanol A], for which the “Cell viability, WT” value with ARID1A-WT HCT116 cells (setting [1]) was found to be 51.32. For the same compound, the “Cell viability, KO” value with ARID1A-KO HCT116 cells (setting [2]) was 33.47.

Turning to `O=C1Nc2ccc(I)cc2/C1=C/c1cc(Br)c(O)c(Br)c1` [RAF1 kinase inhibitor I], the “Cell viability, WT” value in the series with ARID1A-WT HCT116 cells (setting [1]) came to 127.271. The “Cell viability, KO” value in the series on ARID1A-KO HCT116 cells (setting [2]) amounted to 164.7652.

As to `O=C(NCCCCCCNC(=O)ON=C1CCCCC1)ON=C1CCCCC1` [RHC80267], the “Cell viability, WT” value in the series on ARID1A-WT HCT116 cells (setting [1]) is 82.45. Also, the “Cell viability, KO” value in the series on ARID1A-KO HCT116 cells (setting [2]) stood at 92.22.

As to `O=C1Nc2ccccc2C2(CCN(CCc3ccc(C(F)(F)F)cc3)CC2)O1` [RS 102895], the “Cell viability, WT” value with ARID1A-WT HCT116 cells (setting [1]) stood at 37.34. The “Cell viability, KO” value with ARID1A-KO HCT116 cells (setting [2]) amounted to 47.58.

As to `CN1C(=O)CN=C(c2ccc(Cl)cc2)c2cc(Cl)ccc21` [Ro 5-4864], the “Cell viability, WT” value in the series with ARID1A-WT HCT116 cells (setting [1]) was determined as 92.88. Moreover, the “Cell viability, KO” value with ARID1A-KO HCT116 cells (setting [2]) stood at 98.27.

Turning to `CCCCOc1cc(CC2CNC(=O)N2)ccc1OC` (centres unmarked) [Ro-20-1724], in the series with ARID1A-WT HCT116 cells (setting [1]), the “Cell viability, WT” value is reported as 163.0432. In the series on ARID1A-KO HCT116 cells (setting [2]), the “Cell viability, KO” value was determined as 105.8008.

With `Nc1ncnc2c1nc(Sc1ccc(Cl)cc1)n2[C@@H]1O[C@@H]2COP(O)(=S)O[C@H]2[C@H]1O` (some centres unmarked) [Rp-8-CPT-cOMPS], the “Cell viability, WT” value in the series with ARID1A-WT HCT116 cells (setting [1]) worked out at 110.9572. The “Cell viability, KO” value with ARID1A-KO HCT116 cells (setting [2]) was found to be 135.7084.

In the case of `NC1CC1c1cc(F)cc(F)c1OCc1ccccc1` (centres unmarked) [S2101 (LSD1 inhibitor II)], the “Cell viability, WT” value in the series with ARID1A-WT HCT116 cells (setting [1]) came to 80.52. In addition, the “Cell viability, KO” value in the series with ARID1A-KO HCT116 cells (setting [2]) was 83.95.

`Oc1ccc(-c2nc(-c3ccc(F)cc3)c(-c3ccncc3)[nH]2)cc1` [SB202190]: the “Cell viability, WT” value with ARID1A-WT HCT116 cells (setting [1]) is on record as 108.8022. Also, the “Cell viability, KO” value in the series with ARID1A-KO HCT116 cells (setting [2]) is given as 191.0939.

As for `COc1nccc(-c2c(-c3ccc(F)cc3)ncn2C2CCC(O)CC2)n1` (centres unmarked) [SB239063], the “Cell viability, WT” value in the series with ARID1A-WT HCT116 cells (setting [1]) is listed as 118.4502. In addition, the “Cell viability, KO” value in the series on ARID1A-KO HCT116 cells (setting [2]) was determined as 174.3691.

As to `C[S+]([O-])c1ccc(-c2nc(-c3ccc(F)cc3)c(-c3ccncc3)[nH]2)cc1` (centres unmarked) [SB 203580], the “Cell viability, WT” value with ARID1A-WT HCT116 cells (setting [1]) is given as 163.1226. In addition, the “Cell viability, KO” value in the series on ARID1A-KO HCT116 cells (setting [2]) was 176.0802.

For `O=C1NC(=O)c2c1c1c3ccccc3n3c1c1c2c2ccccc2n1C1CCC3O1` [SB 218078], in the series on ARID1A-WT HCT116 cells (setting [1]), the “Cell viability, WT” value is 101.994. Moreover, the “Cell viability, KO” value with ARID1A-KO HCT116 cells (setting [2]) amounted to 109.2807.

Turning to `O=C(Nc1ccc([N+](=O)[O-])cc1O)Nc1ccccc1Br` [SB 225002], the “Cell viability, WT” value with ARID1A-WT HCT116 cells (setting [1]) is 5.2146. The “Cell viability, KO” value with ARID1A-KO HCT116 cells (setting [2]) was determined as 8.056.

As to `COC(=O)[C@H](Cc1ccc([N+](=O)[O-])cc1)NC(=O)c1cccc2ccccc12` [SB 328437], the “Cell viability, WT” value in the series on ARID1A-WT HCT116 cells (setting [1]) is given as 104.1947. For the same compound, the “Cell viability, KO” value in the series with ARID1A-KO HCT116 cells (setting [2]) worked out at 112.6489.

With `NC(=O)c1ccc(-c2nc(-c3ccccn3)c(-c3ccc4c(c3)OCO4)[nH]2)cc1` [SB 431542], in the series with ARID1A-WT HCT116 cells (setting [1]), the “Cell viability, WT” value was found to be 85.04. Besides, in the series on ARID1A-KO HCT116 cells (setting [2]), the “Cell viability, KO” value is reported as 85.02.

Regarding `Fc1ccc(Cl)cc1-c1nc(Nc2ccncc2)c2nccnc2n1` [SD208], in the series with ARID1A-WT HCT116 cells (setting [1]), the “Cell viability, WT” value was 73.72. Besides, the “Cell viability, KO” value with ARID1A-KO HCT116 cells (setting [2]) is listed as 78.9.

As for `NC(=O)C1CCCc2c1[nH]c1ccc(Cl)cc21` (centres unmarked) [SIRT1 inhibitor III], in the series with ARID1A-WT HCT116 cells (setting [1]), the “Cell viability, WT” value was 92.15. The “Cell viability, KO” value in the series on ARID1A-KO HCT116 cells (setting [2]) was 98.94.

Consider `CC(C)c1cc(/C=C(\C#N)C(=O)NCCCc2ccccc2)cc(C(C)C)c1O` [SU1498], for which the “Cell viability, WT” value in the series on ARID1A-WT HCT116 cells (setting [1]) is 165.2374. In the series on ARID1A-KO HCT116 cells (setting [2]), the “Cell viability, KO” value is given as 119.3751.

For `O=CN1CCN(c2ccc(/C=C3\C(=O)Nc4ccccc43)cc2)CC1` [SU4984], the “Cell viability, WT” value with ARID1A-WT HCT116 cells (setting [1]) is listed as 129.369. Also, the “Cell viability, KO” value in the series on ARID1A-KO HCT116 cells (setting [2]) amounted to 172.2779.

In the case of `Cc1c[nH]c(/C=C2\C(=O)Nc3ccccc32)c1CCC(=O)O` [SU5402], the “Cell viability, WT” value in the series with ARID1A-WT HCT116 cells (setting [1]) stood at 110.6763. In addition, the “Cell viability, KO” value with ARID1A-KO HCT116 cells (setting [2]) amounted to 139.2404.

`CN(C)S(=O)(=O)c1ccc2c(c1)/C(=C/c1cc3c([nH]1)CCCC3)C(=O)N2` [SU6656]: the “Cell viability, WT” value with ARID1A-WT HCT116 cells came to 124.1846. The “Cell viability, KO” value with ARID1A-KO HCT116 cells turned out to be 170.9958.
